The values below come from article PMC10974945, “Targeting MutT Homolog 1 (MTH1) for Breast Cancer Suppression by Using a Novel MTH1 Inhibitor MA−24 with Tumor-Selective Toxicity” (Pharmaceuticals, 2024).

For one data set, the system named is 4T1 breast cancer tumor. The experiment in a line: 4T1 breast cancer tumor model in Balb/c mice. The conditions noted are these: for Ki67 expression / tumor cell proliferation in tumors / body weight compared to the control group: MA−24 60 mg/kg; for body weight compared to the control group: TH287 200 mg/kg i.p. every three days. Here is the method: All animal experiments were carried out in accordance with a protocol approved by the Animal Ethics Committee of the China Pharmaceutical University. Female BALB/C mice were given food and water ad libitum. Approximately 7-week-old mice were injected subcutaneously with 2 × 10^5 4T1 cells in the left flank. When the mean tumor size reached 30~50 mm^3, vehicle (composed with 1% DMSO, 10% ethanol, 10% Chremophor EL, and 10% Tween-80, diluted with PBS), MTH1 inhibitor (MA−24 at 60 mg/kg or TH287 at 200 mg/kg), or 5-FU (30 mg/kg) was administered intraperitoneally every three days. Tumor size and body weights were measured twice weekly starting on the first day of treatment. Moreover, to minimize animal suffering, euthanasia by cervical dislocation was performed when the maximum diameter of the tumors exceeded 1 cm.

Data set [1] has as its target T1, MTH1 (Homo sapiens, UniProt P36639). The experiment in a line: MTH1 enzymatic inhibition, malachite green colorimetric assay. In kind it is biochemical. The procedure: MTH1, inorganic pyrophosphatase, and dGTP (Thermo Fisher Scientific, Waltham, MA, USA) were diluted in assay buffer containing 100 mM Tris-acetate at pH 8.0, 40 mM NaCl, 10 mM Mg-acetate, 0.005% Tween 20, and 1 mM DTT. Briefly, serial dilutions of compounds were dissolved in assay buffer; meanwhile, MTH1 was diluted to 4 μg/mL, and then these two solutions were mixed and filled with buffer to 186 µL. After 15 min incubation at 25 °C, 10 µL dGTP (final concentration […]) and 4 µL inorganic pyrophosphatase (final concentration 0.2 U/mL) were added to start the reaction. The reaction mixture was incubated with shaking for 45 min at 25°C. Finally, 50 µL of malachite green assay reagent was added and incubated with shaking for 15 min at 25 °C. The absorbance of the assay plate was read at 630 nm using a Multiskan GO Microplate Spectrophotometer (Thermo Fisher Scientific, Waltham, MA, USA) and IC50 values were calculated using GraphPad Prism 9.5.1 Software.

For data set [2], the system named is MCF−7 cells. The experiment in a line: MTT cell viability/proliferation assay, MCF−7. As to conditions: Homo sapiens; for IC50: read-out: IC50 against MCF−7 cell proliferation (mean ± SD); for inhibition at 200 µM: compound concentration 200 μM, read-out: Inhibition (%) (Mean ± SD) of MCF−7 cell proliferation. In kind it is cell-based. The procedure:
(§1) Human breast cancer cell lines (MCF-7: ER+, PR+, HER2-, EGFR+, MB-MDA-MB-231: […] All cells were cultured in suitable medium supplemented with 10% fetal bovine serum (FBS; […] Biotechnology Co., Ltd., Hangzhou, China), 100 U/mL penicillin, and 100 μg/mL streptomycin (Invitrogen, Carlsbad, CA, USA) at 37 °C in 5% CO2. MCF-7, MB-MDA-MB-231, HEK-293F, and HUVEC were grown in Dulbecco's modified Eagle's medium (DMEM; […] Subsequently, cells were treated with compound or vehicle (maximum 0.3% DMSO). After 48 h, cells were treated with MTT; the absorbance of the assay plate was read at 490 nm using a Multiskan GO Microplate Spectrophotometer (Thermo Fisher Scientific, Waltham, MA, USA).

A further data set deals with MDA-MB-231 cells. The experiment in a line: MTT cell viability/proliferation assay, MDA-MB-231. In kind it is cell-based. As to conditions: Homo sapiens, read-out: IC50 on MDA-MB-231 proliferation (mean ± SD). The procedure: as §1
For the next data set, the system named is 4T1 cells. The experiment in a line: MTT cell viability/proliferation assay, 4T1. It is filed as cell-based, murine. The conditions noted are these: Mus musculus, read-out: IC50 on 4T1 proliferation (mean ± SD). The procedure:
as §1

Another data set has as its system HUVEC cells. The data set is described as follows: MTT cell viability/proliferation assay, HUVEC (immortalized). In kind it is cell-based. The conditions noted are these: Homo sapiens, 48 h, read-out: IC50 on HUVEC proliferation (mean ± SD). The procedure:
as §1

The test system of a further data set is HEK-293F cells. The experiment in a line: MTT cell viability/proliferation assay, HEK-293F (immortalized). In kind it is cell-based. As to conditions: HEK293F, 48 h, read-out: IC50 on HEK-293F proliferation (mean ± SD). The procedure: as §1
Another data set concerns CHO cells. The experiment in a line: MTT cell viability/proliferation assay, CHO (immortalized). In kind it is cell-based. As to conditions: Cricetulus griseus, 48 h, read-out: IC50 on CHO proliferation (mean ± SD). The procedure: as §1
Data set [3] addresses T1, MTH1. The experiment in a line: Kinetic analysis of MTH1 inhibition (reciprocal plot). It is filed as biochemical. As to conditions: consistent 1/Vmax.
Data set [4] concerns the target T1, MTH1. The experiment in a line: Target engagement by cellular thermal shift assay (CETSA) in MCF−7 cells. The conditions noted are these: 50 μM, 4.5 h, 42 to 75 °C. It is filed as cell-based. Here is the method: MCF−7 cells cultured in 6-well plates for 24 h were exposed to vehicle (0.5% DMSO) or 50 μM TH287 or MA−24 for 4.5 h. After trypsinization cells were detached, spun down and resuspended in PBS. Eight equational cells were heated for 3 min from 42 to 75 °C, and then lysed using RIPA lysis buffer. Western blot analysis was used to analyze the amounts of stabilized MTH1 using the MTH1 antibody.

Data set [5] deals with MCF−7 cells. The experiment in a line: Alkaline comet assay in MCF−7 cells. In kind it is cell-based, human. The conditions noted are these: 10 μM, 2 days. Here is the method: MCF−7 cells (300,000 cells) were plated in 6-well plates and incubated for 24 h at 37 °C and 5% CO2. Subsequently, cells were treated with a compound (10 μM MA−24 and TH287) or vehicle (0.1% DMSO) for 2 days or with 150 μM for 10 min on ice. Cells were harvested as above. After washing twice with PBS, cells were re-suspended in PBS. Then, the 30 μL cell suspension was mixed with 150 µL 1.2% low-melting agarose that was maintained at 37 °C. The mixture was layered onto pre-warmed (37 °C) agarose-coated glass slides. The slides were kept on ice for 10 min and incubated in lysis buffer (10 mM Tris pH 7.7, 2.5 M NaCl, 0.1 M EDTA, 1% DMSO, and 1% Triton X-100) at 4 °C overnight in the dark. Slides were washed twice with enzyme reaction buffer (40 mM HEPES pH 8.0, 0.1 M KCl, 0.5 mM EDTA, and 0.2 mg/mL BSA) and incubated with Fpg […] (8 U/mL, New England Biolabs, Shanghai, China) at 37 °C for 45 min. Slides were washed once with enzyme reaction buffer and incubated in alkaline electrophoresis buffer (50 mM NaOH, 1 mM EDTA, and 1% DMSO) for 20 min. […] Images were acquired with a fluorescence microscope (Olympus Corporation, Tokyo, Japan) and quantified using Comet Score software, Version 1.5. At least 100 comets per sample were analyzed. Tail moment is calculated as the percentage of DNA in the tail multiplied by the tail length.

Data set [6] has as its system MCF−7 cells. The data set is described as follows: Western blot of apoptosis and p38 MAPK proteins in MCF−7 cells. As to conditions: for expression of p38: high concentrations. In kind it is cell-based, human. The source says: Total protein was obtained using RIPA lysis buffer (Beyotime Biotechnology, Shanghai, China) supplemented with phenylmethanesulfonyl fluoride (Beyotime Biotechnology, Shanghai, China), separated by SDS-PAGE, and transferred to the PVDF membrane by electroblotting (Bio-Rad, Hercules, CA, USA) followed by blocking with 5% milk in TBST. MTH1 antibody (Cat.No.ab200832, Abcam, Eugene, OR, USA), β-actin antibody (Cat.No.ab8227; Abcam, Eugene, OR, USA), ccaspae-3 antibody (Cat.No.14220, CST, Boston, USA), cleaved caspase-3 antibody (Asp175) (Cat.No.9664, CST, Boston, MA, USA), cleaved PARP antibody (Asp214) (Cat.No.95696, CST, Boston, MA, USA), p38 (Cat.No.9212, CST, Boston, MA, USA), and phospho-p38 MAPK (Thr180/Tyr182) (Cat.No.9211, CST, Boston, MA, USA) were used at a dilution of 1:1000–1:5000. Upon addition of primary and HRP-conjugated secondary antibodies, blots were detected using an ECL substrate (Thermo Fisher Scientific, Waltham, MA, USA) and the Tanon 5200 Chemiluminescent Imaging System (Tanon, Shanghai, China).
For orientation: In western blotting, separated proteins are transferred to a membrane and probed.

On the set-up of data set [7]: method as in PMID 25459754. The conditions noted are these: intraperitoneal injection, cited from earlier work.
Details of data set [8]: method as in PMID 24695224. The conditions noted are these: in vitro studies; cited from earlier work.
Setting [9] is: 5-FU 30 mg/kg i.p. every three days, 4T1 tumor.
The mark [10] stands for this setting: malachite green staining assay, dGTP substrate, read-out: IC50 to MTH1 (mean ± SD).

Read-outs that look alike come from different tables or passages of the source.

For `O=c1[nH]cc(F)c(=O)[nH]1` [5-FU, 5-fluorouracil], in the data set with 4T1 breast cancer tumor (30 mg/kg intraperitoneally every three days, 4T1 tumor), the “tumor growth inhibition rate” value was 81.9%. Also, in the data set with 4T1 breast cancer tumor (5-FU 30 mg/kg i.p. every three days), the “toxicity: mouse mortality” value is “mouse mortality starting from the 16th day of treatment”. In the data set on 4T1 breast cancer tumor (setting [9]), the “Ki67 expression / tumor cell proliferation in tumors” value is recorded as “inhibitory effect on tumor cell proliferation”.
Regarding `CNc1cc(NCCc2ccc(C)cc2)nc(N)n1` [MA−24], the IC50 was 0.0104 ± 0.00028 µM on MTH1 [1] (setting [10]); 23.9 ± 0.95 µM in the data set with MCF−7 cells [2] (MCF7, MTT assay, 48 h); 48.4 ± 0.68 µM in the data set with MDA-MB-231 cells (MDA-MB-231, MTT assay, 48 h, cancer cell line); 14.8 ± 1.42 µM in the data set with 4T1 cells (4T1, MTT assay, 48 h, cancer cell line); not below 75 µM in the data set on HUVEC cells (MTT assay, immortalized cells); not below 75 µM in the data set with HEK-293F cells (MTT assay, immortalized cells). The IC50 in the data set with CHO cells (MTT assay, immortalized cells) was not below 75 µM. In the data set with MCF−7 cells [2] (MCF7, MTT assay), the inhibition at 200 µM was 99.6 ± 0.4%. The “tumor growth inhibition rate” value in the data set on 4T1 breast cancer tumor (60 mg/kg intraperitoneally every three days, 4T1 tumor) was 61.8%. Besides, in the data set with 4T1 breast cancer tumor (MA−24 60 mg/kg i.p. every three days, 4T1 tumor), the lung metastasis result is listed as “reduced lung metastasis”. The “Ki67 expression / tumor cell proliferation in tumors” value with 4T1 breast cancer tumor (setting [9]) is listed as “moderate reduction in Ki67 expression”. Besides, the “body weight compared to the control group” value in the data set on 4T1 breast cancer tumor is recorded as “no statistically significant differences”. Moreover, the “type of inhibition on MTH1 with respect to dGTP” value at MTH1 [3] is recorded as “competitive inhibition type”. Moreover, the “thermal stabilization of MTH1 (CETSA)” value at MTH1 [4] is “prominent thermal stabilization”. In the data set with MCF−7 cells [5], the “DNA strand breaks (comet assay)” value is “significantly increased DNA strand breaks”. Moreover, the “expression of cleaved-caspase 3 and cleaved PARP” value with MCF−7 cells [6] (30 μM) was “upregulation of cleaved-caspase 3 and cleaved PARP”. The “expression of p38” value with MCF−7 cells [6] was “significantly reduce the expression of p38”.
Take `CNc1cc(NCCc2ccc(F)cc2)nc(N)n1` [MA−25]: the IC50 at MTH1 [1] (setting [10]) amounted to 0.01374 ± 0.0001 µM; in the data set on MCF−7 cells [2] (MCF7, MTT assay, 48 h) it was 82.3 ± 1.02 µM. Further, the inhibition at 200 µM in the data set on MCF−7 cells [2] (MCF7, MTT assay) was determined as 100 ± 0.1%.
Regarding `CNc1cc(-c2cccc(Cl)c2Cl)nc(N)n1` [TH287, reference compound], the IC50 at MTH1 [1] was 0.00316 ± 3e-05 µM; with MCF−7 cells [2] (MCF7, 48 h) it was 3.55 ± 0.27 µM; in the data set on MDA-MB-231 cells (MDA-MB-231, 48 h) it was 1.92 ± 0.34 µM; in the data set on 4T1 cells (4T1, 48 h), 5.9 ± 1.02 µM; in the data set with HUVEC cells, not below 25 µM; in the data set on HEK-293F cells, not below 25 µM. Besides, in the data set with CHO cells, the IC50 is not below 25 µM. Besides, in the data set on 4T1 breast cancer tumor (200 mg/kg intraperitoneally every three days, 4T1 tumor), the “tumor growth inhibition rate” value amounted to 20.4%. In the data set on 4T1 breast cancer tumor, the “body weight compared to the control group” value was “no statistically significant differences”. At MTH1 [3], the “type of inhibition on MTH1 with respect to dGTP” value was “competitive inhibition type”. Besides, at MTH1 [4], the “thermal stabilization of MTH1 (CETSA)” value is “increase the thermal stability of the MTH1 protein”. Also, the “expression of p38” value in the data set on MCF−7 cells [6] was “significantly reduce the expression of p38”. For the same compound, the “blood drug concentration at 2, 3, and 4 h” value in data set [7] (5mg/kg, 2, 3, and 4 h) is “below the detection limit”. The “blood drug concentration at 1 h” value in data set [7] (5mg/kg, 1 h) is 1000 nM. The “stability in vitro compared to TH588” value in [8] was “poorer stability”.
